Results published in patent US9512120B2, “Microbicidally active imidazopyridine derivatives” (Syngenta Participations AG, priority 2013, dated 2016).

Tests used:
[1] = system: Thanatephorus cucumeris (Rhizoctonia solani); assay: Thanatephorus cucumeris (Rhizoctonia solani) / liquid culture (foot rot, damping-off); assay type: cell-based; settings: PDB, 24° C., 3-4 days after application, read-out: control of Thanatephorus cucumeris (inhibition of growth, photometric)
Procedure, shortened: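 At 200 ppm, compounds in DMSO were combined with fresh liquid-culture mycelia in PDB and kept at 24° C; photometric measurement of growth inhibition after 3-4 days.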

Gaeumannomyces graminis = Gaeumannomyces graminis / liquid culture (take-all of cereals); assay type: cell-based; settings: PDB, 24° C., 4-5 days after application, read-out: control of Gaeumannomyces graminis (inhibition of growth, photometric)
Procedure, shortened: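 Growth inhibition, measured by photometry 4-5 days post-application at 24 °C, of fungal mycelial fragments in PDB broth. Test compound applied as DMSO solution at 200 ppm.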

[2] = system: Mycosphaerella graminicola (Septoria tritici); assay: Mycosphaerella graminicola (Septoria tritici) / liquid culture (Septoria blotch); assay type: cell-based; settings: Zymoseptoria tritici, PDB, 24° C., 4-5 days after application, read-out: control of Mycosphaerella graminicola (inhibition of growth, photometric)
Procedure, shortened: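 Growth inhibition was read photometrically after 4–5 days at 24 °C. The test compound was applied at 200 ppm from DMSO solution, then PDB broth seeded with conidia taken straight from cryogenic storage was added.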

Pyrenophora teres = Pyrenophora teres / barley / leaf disc preventative (net blotch); assay type: in vivo; settings: foliar, barley leaf segments cv Hasso, inoculated two days after application, assessed 5-7 days after application, read-out: control of Pyrenophora teres (disease control compared to untreated)
Procedure, shortened: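 Preventative leaf-disc test: 200 ppm spray, then spore inoculation after two days on barley cv Hasso segments. Incubation 20 °C, 65% relative humidity, 12 h light/12 h dark; efficacy rated against untreated checks at 5-7 days post-application.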

[3] = system: Botryotinia fuckeliana (Botrytis cinerea); assay: Botryotinia fuckeliana (Botrytis cinerea) / liquid culture (gray mould); assay type: cell-based; settings: Vogels broth, 24° C., 3-4 days after application, read-out: control of Botryotinia fuckeliana (inhibition of growth, photometric)
Procedure, shortened: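 Test compound was applied at 200 ppm in DMSO, then Vogels nutrient broth containing cryo-stored B. cinerea conidia was added. Photometric growth-inhibition reading followed after 3-4 days at 24 °C.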

[4] = system: Puccinia recondita f. sp. Tritici; assay: Puccinia recondita f. sp. tritici / wheat / leaf disc curative (brown rust); assay type: in vivo; settings: foliar, wheat leaf segments cv Kanzler, applied 1 day after inoculation, assessed 6-8 days after application, read-out: control of Puccinia recondita f. sp. Tritici (percent disease control compared to untreated)
Protocol: Puccinia recondita f. Sp. Tritici/Wheat/Leaf Disc Curative (Brown Rust): Wheat leaf segments cv Kanzler were placed on agar in 24-well plates. The leaf segments were inoculated with a spore suspension of the fungus. The plates were stored in darkness at 19° C. and 75% relative humidity. The formulated test compound diluted in water was applied at an application rate of 200 ppm 1 day after inoculation. […] Tritici at 200 ppm when compared to untreated control leaf disks under the same conditions, which show extensive disease development: 2, 13, 16, 23, 30, 61, 75, 89, 103, 173, 174

[5] = system: Blumeria graminis f. Sp. Tritici (Erysiphe graminis f. Sp. Tritici); assay: Blumeria graminis f. sp. tritici / wheat / leaf disc preventative (powdery mildew on wheat); assay type: in vivo; settings: foliar, wheat leaf segments cv. Kanzler, inoculated 1 day after application, assessed 6-8 days after application, read-out: control of Blumeria graminis (percent disease control compared to untreated)
Procedure, shortened: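 Wheat leaf segments (cv. Kanzler) on agar sprayed with formulated compound at 200 ppm, inoculated with powdery mildew 1 day later. Held at 20 °C, 60% RH, 24 h dark then 12 h/12 h light; percent disease control versus untreated scored 6-8 days after application.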

[6] = system: Puccinia recondita f. sp. Tritici; assay: Puccinia recondita f. sp. tritici / wheat / leaf disc preventative (brown rust); assay type: in vivo; settings: foliar, wheat leaf segments cv Kanzler, inoculated 1 day after application, assessed 7-9 days after application, read-out: control of Puccinia recondita f. sp. Tritici (percent disease control compared to untreated)
Procedure, shortened: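 Preventative test: percent disease control relative to untreated leaf segments was assessed 7-9 days post-application. Wheat (cv Kanzler) leaf discs were treated at 200 ppm and spore-inoculated 1 day afterwards. Discs were held at 19° C and 75% relative humidity under a 12/12 h light cycle.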

[7] = system: Fusarium graminearum, syn. Gibberella zeae; assay: whole plant or invertebrate; assay type: in vivo; settings: in Triticum aestivum, 144 h, read-out: control of Gibberella zeae (preventative fungicidal activity)
[8] = system: Phaeosphaeria nodorum (Septoria nodorum); assay: Phaeosphaeria nodorum (Septoria nodorum) / wheat / leaf disc preventative (glume blotch); assay type: in vivo; settings: Parastagonospora nodorum, foliar, wheat leaf segments cv Kanzler, inoculated 2 days after application, assessed 5-7 days after application, read-out: control of Phaeosphaeria nodorum (percent disease control compared to untreated)
Procedure, shortened: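 Wheat leaf segments (cv Kanzler) on agar sprayed with compound at 200 ppm, inoculated with spores 2 days later. Incubated at 20° C., 75% relative humidity, 12/12 h light/dark; percent disease control versus untreated scored 5-7 days after application.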

[9] = system: Glomerella lagenarium (Colletotrichum lagenarium); assay: Glomerella lagenarium (Colletotrichum lagenarium) / liquid culture (anthracnose); assay type: cell-based; settings: Colletotrichum orbiculare, PDB, 24° C., 3-4 days after application, read-out: control of Glomerella lagenarium (inhibition of growth, photometric)
Procedure, shortened: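 Test compound, delivered in DMSO at an application rate of 200 ppm, was combined with spore-containing PDB. Photometric growth-inhibition measurement followed 3-4 days of incubation at 24° C.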

Sclerotinia sclerotiorum = Sclerotinia sclerotiorum liquid culture (cottony rot / white mold); assay type: cell-based; settings: PDB, 24° C., 3-4 days after application, read-out: control of Sclerotinia sclerotiorum (inhibition of growth, photometric)
Procedure, shortened: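 Mycelia fragments of Sclerotinia sclerotiorum in potato dextrose broth were added to compound in DMSO. Cultures incubated at 24° C; growth inhibition determined photometrically 3-4 days after application.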

Pythium ultimum = Pythium ultimum / liquid culture (seedling damping off); assay type: cell-based; settings: Globisporangium ultimum, potato dextrose broth, 24° C., 2-3 days after application, read-out: control of Pythium ultimum (inhibition of growth, photometric)
Procedure, shortened: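 Test compound in DMSO at 200 ppm was incubated with mycelia fragments and oospores in potato dextrose broth at 24 °C. Growth inhibition was read photometrically 2-3 days after application.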

Fusarium culmorum = assay: microbe, parasite or virus in culture; assay type: cell-based; settings: read-out: control of Fusarium culmorum (inhibition of growth, photometric)
Plasmopara viticola = Plasmopara viticola / grape / leaf disc preventative; assay type: in vivo; settings: foliar, grape vine leaf disks, inoculated 1 day after application, assessed 6-8 days after application, read-out: control of Plasmopara viticola (percent disease control compared to untreated)
[10] = system: Mycosphaerella arachidis (Cercospora arachidicola); assay: Mycosphaerella arachidis (Cercospora arachidicola) / liquid culture (early leaf spot); assay type: cell-based; settings: PDB, 24° C., 4-5 days after application, read-out: control of Mycosphaerella arachidis (inhibition of growth, photometric)
Procedure, shortened: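 Conidia suspended in potato dextrose broth and added to test compound from DMSO solution at 200 ppm. Incubated at 24 °C; growth inhibition read photometrically 4-5 days after application.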

[11] = system: Monographella nivalis (Microdochium nivale); assay: Monographella nivalis (Microdochium nivale) / liquid culture (foot rot cereals); assay type: cell-based; settings: PDB, 24° C., 4-5 days after application, read-out: control of Monographella nivalis (inhibition of growth, photometric)
Procedure, shortened: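 Cryostored conidia in potato dextrose broth were added to test compound dispensed from DMSO at 200 ppm. Plates were kept at 24° C, and growth inhibition was read photometrically 4-5 days after application.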

Structure (SMILES) | inhibition at 20 ppm [1] [%] | inhibition at 20 ppm (Gaeumannomyces graminis) [%] | inhibition at 20 ppm [2] [%] | pest or weed control at 200 ppm (Pyrenophora teres) [%] | inhibition at 20 ppm [3] [%] | pest or weed control at 200 ppm [4] [%] | pest or weed control at 200 ppm [5] [%] | pest or weed control at 200 ppm [6] [%] | pest or weed control at 20 ppm [7] [%] | melting point [°C] | pest or weed control at 200 ppm [8] [%] | inhibition at 20 ppm [9] [%] | inhibition at 20 ppm (Sclerotinia sclerotiorum) [%] | inhibition at 20 ppm (Pythium ultimum) [%] | inhibition at 20 ppm (Fusarium culmorum) [%] | pest or weed control at 200 ppm (Plasmopara viticola) [%] | inhibition at 20 ppm [10] [%] | inhibition at 20 ppm [11] [%]
Nc1ncnn1-c1nc2cnccc2n1C1CCCCC1 [Compound 2, 2-(1-cyclohexylimidazo[4,5-c]pyridin-2-yl)-1,2,4-triazol-3-amine] | ≥ 80 | ≥ 80 | ≥ 80 | ≥ 80 | ≥ 80 | ≥ 80 | ≥ 80 | ≥ 80 | ≥ 80 | – | – | – | – | – | – | – | – | –
CC=Cn1c(-n2ncnc2N)nc2cnccc21 [Compound 16, 2-(1-prop-1-enylimidazo[4,5-c]pyridin-2-yl)-1,2,4-triazol-3-amine] | ≥ 80 | ≥ 80 | – | ≥ 80 | ≥ 80 | ≥ 80 | – | – | – | 199 to 200 | – | – | – | – | – | – | – | –
CCn1c(-n2ncnc2N)nc2cncc(-c3ccc(C(F)(F)F)cc3)c21 [Compound 30, 2-[1-ethyl-7-[4-(trifluoromethyl)phenyl]imidazo[4,5-c]pyridin-2-yl]-1,2,4-triazol-3-amine] | ≥ 80 | – | – | ≥ 80 | ≥ 80 | ≥ 80 | – | ≥ 80 | – | – | ≥ 80 | ≥ 80 | ≥ 80 | – | – | – | – | –
CCn1c(-n2ncnc2N)nc2cncc(-c3cnn(C)c3)c21 [Compound 61, 2-[1-ethyl-7-(1-methylpyrazol-4-yl)imidazo[4,5-c]pyridin-2-yl]-1,2,4-triazol-3-amine] | ≥ 80 | – | ≥ 80 | ≥ 80 | ≥ 80 | ≥ 80 | ≥ 80 | ≥ 80 | – | – | ≥ 80 | – | – | – | – | – | – | –
CCn1c(-n2ncnc2N)nc2cncc(-c3ccccc3F)c21 [Compound 79, 2-[1-ethyl-7-(2-fluorophenyl)imidazo[4,5-c]pyridin-2-yl]-1,2,4-triazol-3-amine] | ≥ 80 | ≥ 80 | ≥ 80 | ≥ 80 | ≥ 80 | – | – | ≥ 80 | – | – | ≥ 80 | ≥ 80 | ≥ 80 | ≥ 80 | ≥ 80 | ≥ 80 | ≥ 80 | ≥ 80
CCn1c(-n2ncnc2N)nc2cncc(-c3ccc(Cl)cc3F)c21 [Compound 98, 2-[7-(4-chloro-2-fluorophenyl)-1-ethylimidazo[4,5-c]pyridin-2-yl]-1,2,4-triazol-3-amine] | ≥ 80 | ≥ 80 | ≥ 80 | ≥ 80 | ≥ 80 | – | – | ≥ 80 | ≥ 80 | – | ≥ 80 | ≥ 80 | ≥ 80 | – | ≥ 80 | – | ≥ 80 | ≥ 80
CCn1c(-n2ncnc2N)nc2cncc(-c3cccnc3Cl)c21 [Compound 103, 2-[7-(2-chloropyridin-3-yl)-1-ethylimidazo[4,5-c]pyridin-2-yl]-1,2,4-triazol-3-amine] | ≥ 80 | ≥ 80 | ≥ 80 | ≥ 80 | ≥ 80 | ≥ 80 | ≥ 80 | ≥ 80 | – | – | ≥ 80 | ≥ 80 | – | – | – | – | – | ≥ 80
CCn1c(-n2ncnc2N)nc2cncc(/C(C)=N\OC/C=C/Cl)c21 [Compound 149] | ≥ 80 | – | ≥ 80 | ≥ 80 | ≥ 80 | – | – | ≥ 80 | ≥ 80 | – | ≥ 80 | ≥ 80 | ≥ 80 | ≥ 80 | ≥ 80 | ≥ 80 | ≥ 80 | ≥ 80
